One compound from patent publication US20260216109A1, “TREATMENT OF SKIN DISORDERS WITH SHORT CHAIN FATTY ACIDS” (Temple University-Of The Commonwealth System of Higher …, priority 2023, published 2026) can be followed below.

Experiment [1] has as its system IL-22. The experiment in a line: Multiplex (MSD V-PLEX) cytokine release, InflammaSkin: IL-22. As to conditions: Example 2; Day 7 supernatant; 1 μM Otezla or SCFA systemic, 0.05% Betamethasone topical; vs untreated InflammaSkin. In kind it is cell-based, human. Here is the method:
(§1) A total of 16 biopsies of 15 mm diameter were produced from a single donor. Two NativeSkin® models with 12/15 mm silicon rings were produced from the biopsies according to standard procedures in place, and cultured under cell culture conditions (37° C., 5% CO2, max. humidity) for 7 days with 2 mL of standard NativeSkin® medium renewed every day. Fourteen PSO-InflammaSkin® models with 12/15 mm silicon rings were produced by inducing in situ activation and Th17/Th1 polarization of skin resident T cells with a proprietary cocktail, and cultured under cell culture conditions (37° C., 5% CO2, max. humidity) for 7 days with 2 mL of PSO-InflammaSkin® culture medium renewed every day. […]
(§2) Human pro-inflammatory cytokines released in the supernatant were quantified using the V-PLEX Human IL-17A Kit (MesoScale Discovery, reference: K151RFD-1) and V-PLEX Human custom Pro-inflammatory. […]
(§3) Samples were diluted four times for plate 2 and two times for plate 1. Samples and standards were assessed in duplicate. Plates were read on MesoScale Discovery Quickpleax SQ 120 plate reader and values expressed in pg/mL.
(§4) A statistical analysis was performed. […] First, the distribution's normality of the two compared group was assessed. […] If the two distributions were normal, the homogeneity of variances was assessed using a Fisher test on the variances. […]

For experiment [2], the system named is IFN-γ. The experiment can be described thus: Multiplex (MSD V-PLEX) cytokine release, InflammaSkin: IFN-γ. In kind it is cell-based, human. The following applies: Example 2; Day 7 supernatant; 1 μM Otezla or SCFA (45 μg/mL Ca-propionate + 1 mM Ca-/Mg-butyrate) systemic, 0.05% Betamethasone topical; vs untreated InflammaSkin. Here is the method:
as §1, §2, §3, §4

Experiment [3] concerns MIP-3α. The experiment in a line: Multiplex (MSD V-PLEX) cytokine release, InflammaSkin: MIP-3α. In kind it is cell-based, human. As to conditions: Example 2; 1 μM Otezla systemic; compared to untreated InflammaSkin. Here is the method: as §1, §2, §3, §4
Experiment [4] concerns imiquimod (IMQ)-induced psoriasis model mice. The experiment in a line: Ear skin thickness, IMQ-induced psoriasis model in mice. The experiment is classed as in vivo, mouse. Here is the method: Topical application of IMQ, a TLR7/8 ligand and potent immune activator induced and exacerbated psoriasis in mice. The mouse IMQ-induced psoriasis (IMQ Ps) model was initiated by a repeated topical application of Aldara© cream (containing 5% IMQ) over 6 consecutive days. Female Balb/c mice (9 weeks of age at reception, ordered with 20 g, Charles River, Sulzfeld, Germany; n=10 mice/group, exception healthy controls n=4) received daily a topical application of 62.5 mg of commercially available IMQ cream (5% Aldara©) on the beforehand (day −1) shaved (~2 cm×3 cm), depilated (Pilka© cream) back skin, and 7 mg on the outer right ear skin for 6 consecutive days, translating in a daily dose of approximately 3.5 mg IMQ. Healthy control mice were included in the study and were treated with vehicle cream (Vaseline; Bombastus-Werke AG) only instead of IMQ. Additionally, an IMQ disease control group was also included.
Before starting treatment on the day of disease induction (day 0), mice were randomized based on body weight to the respective group. […]
The added-up score (erythema plus scaling plus thickening), named disease severity score (scale 0-9), served then as marker for the severity of back skin inflammation. In addition, ear thickness of the right ear was determined daily by using an automatized caliper (Bayer AG, Germany).
Disease Severity Score was evaluated on a daily base starting with the induction of psoriasis by IMQ application (day 0) until the end (day 6) of the study. The extent of ear thickness of the IMQ-treated right ear was determined daily by using an automatized caliper (Bayer AG, Germany) as described in Example 4.
Ear thickening, one of the disease severity score parameters, was evaluated in IMQ-treated mice (FIG. 60 and FIG. 61). The extent of ear thickness of the IMQ-treated right ear was determined daily by using an automatized caliper (Bayer AG, Germany) as described in Example 4.

Experiment [5] has as its system K16. The experiment in a line: Anti-K16 immunostaining of InflammaSkin models. The experiment is classed as cell-based, human. As to conditions: Example 1; Day 7; Day 1-6: 1 μM Otezla or SCFA (45 μg/mL Ca-propionate + 1 mM Ca-/Mg-butyrate) systemic, 0.05% Betamethasone topical. Here is the method:
A total of 16 biopsies of 15 mm diameter were produced from a single donor. Two NativeSkin® models with 12/15 mm silicon rings were produced from the biopsies according to standard procedures in place, and cultured under cell culture conditions (37° C., 5% CO2, max. humidity) for 7 days with 2 mL of standard NativeSkin® medium renewed every day. Fourteen PSO-InflammaSkin® models with 12/15 mm silicon rings were produced by inducing in situ activation and Th17/Th1 polarization of skin resident T cells with a proprietary cocktail, and cultured under cell culture conditions (37° C., 5% CO2, max. humidity) for 7 days with 2 mL of PSO-InflammaSkin® culture medium renewed every day.
From Day 1 to Day 6, models were systemically treated with 1 μM Otezla or Short Chain Fatty Acids (SCFAs), or topically treated with positive control 0.05% Betamethasone
In these experiments, the SCFAs administered were 45 μg/mL of Ca-propionate and 1 mM mixture of salts (Ca-butyrate and Mg-butyrate).
At Day 7, supernatants were collected and stored at −80° C. and skin models of all conditions were carefully unmolded. Skin biopsies were re-punched to eliminate the area under the silicon ring, fixed in 10% buffered formalin and processed for paraffin wax embedding. […]

For `CCOc1cc([C@@H](CS(C)(=O)=O)N2C(=O)c3cccc(NC(C)=O)c3C2=O)ccc1OC` [Otezla, Apremilast], the IL-22 secretion result in experiment [1] is listed as “significantly reduced”. Also, in experiment [2], the IFN-γ secretion result is “significantly reduced”. Moreover, the “increase of secretion of MIP-3a” value in experiment [3] is listed as “about 50%”. Besides, the ear thickness entry is “did not show any inhibitory influence on ear thickness” in experiment [4] (Example 7, Apremilast low dose (2.5 mg/kg BID), oral, alone); “inhibited” in experiment [4] (Example 7, Apremilast mid and high dose (5 and 7 mg/kg BID), oral, alone); “did not show any inhibitory influence on ear thickness at day 6” in experiment [4] (Example 12, day 6, Apremilast monotherapy, both doses (12 mg/kg and 25 mg/kg BID)). Also, the “K16 expression in the epidermis” value in experiment [5] is “decreased the expression of K16 in the epidermis”.
